Measured values: US9107396B2, “Stabilized synthetic brood pheromone and race-specific ratios of components for manipulating the behavior and physiology of honey bees” (OMS Investments, Inc., priority 2006, dated 2015)

Assay: Chemical stability of simplified brood pheromone ester blends exposed to air, capillary gas chromatography
Assay type: physicochemical
Settings: for time for which the component remained intact: with antioxidant stabilizer tertiary-butylhydroquinone; for proportional composition of the total blend at start: two-week test; for percentage composition at start / percentage composition after 72 weeks: unstabilized five-component ethyl ester blend; for percentage composition at start: 72-week test
Method: Short-term and long-term stability studies were conducted, with simplified blends of potentially unstable brood pheromone components mixed in approximately the same proportions as in Example 1. Short-term evaluation for a two-week duration was done on blends of methyl oleate, methyl linoleate and methyl linolenate, and ethyl oleate, ethyl linoleate and ethyl linolenate, each with and without tertiary-butylhydroquinone. Twenty-week tests were done with identical blends as for the two-week experiments, but 72-week tests had methyl and ethyl palmitate and stearate added in the appropriate proportions to their respective blends. Approximately 250 mg of a blend was placed in a 4 mL (15×45 mm) plastic vial (Chromatographic Specialties) fitted with a diffusion insert screw cap (Agilent Technologies) with a 1 mm diameter hole to allow air circulation over the sample. All blends were continuously held at a constant temperature of 30° C.
For analysis by capillary gas chromatography, approximately 1 mg of a blend was dissolved in 1 mL of diethyl ether, and a 1 μL aliquot of each extract was analyzed. Analyses were done at time zero and after the given duration of exposure to air at 30° C., using a Hewlett Packard HP5890 gas chromatograph equipped with a flame ionization detector and a 30 m long BPX-70 capillary column (J&W Scientific). The injector and detector temperatures were 260° C. and 285° C., respectively. The temperature program was 80° C. rising at 5° C. per min for 24 min to 200° C., and then rising at 20° C. per min for 3 min to 260° C.
Two-week results are given for methyl and ethyl esters (FIGS. 1 and 2), while long-term 20-week and 72-week results are given for only ethyl esters (FIGS. 3 and 4). Long-term results for methyl esters were virtually identical to those for the ethyl esters.

[1] = unstabilized blend, after two weeks exposure to air
[2] = unstabilized blend, before exposure

SMILES	decrease in amount of component in the unstabilized blend (2 weeks)	time for which the component remained intact	percentage composition at start (before exposure)	percentage composition after 72 weeks	further results
CCCCC/C=C\C/C=C\CCCCCCCC(=O)OCC [ethyl linoleate]	74%	72 weeks	–	–	component remaining in the unstabilized blend after 20 weeks (3360 h): no ethyl linoleate; component remaining in the unstabilized blend after 72 weeks (12096 h): complete breakdown
CC/C=C\C/C=C\C/C=C\CCCCCCCC(=O)OCC [ethyl linolenate]	–	72 weeks	–	–	decrease in amount of component in the unstabilized blend [1]: 94%; component remaining in the unstabilized blend after 20 weeks (unstabilized ethyl ester blend, 20 weeks): no ethyl linolenate remained; component remaining in the unstabilized blend after 72 weeks (unstabilized ethyl ester blend, 72 weeks): complete breakdown
CCCCCCCC/C=C\CCCCCCCC(=O)OCC [ethyl oleate]	–	72 weeks	24%	10%	proportional composition of the total blend after two weeks [1]: 66%; proportional composition of the total blend at start [2]: 40%; proportion of the total blend at start (unstabilized ethyl ester blend, 20-week test, before exposure): 37%; proportion of the total blend after 20 weeks (unstabilized ethyl ester blend, after 20 weeks): 43%
CCCCC/C=C\C/C=C\CCCCCCCC(=O)OC [methyl linoleate]	85%	72 weeks	–	–	–
CC/C=C\C/C=C\C/C=C\CCCCCCCC(=O)OC [methyl linolenate]	90%	72 weeks	–	–	–

Now from value to compound, other results behind:

decrease in amount of component in the unstabilized blend (2 weeks)	time for which the component remained intact	percentage composition at start (before exposure)	percentage composition after 72 weeks	SMILES	further results
–	–	8%	20%	CCCCCCCCCCCCCCCC(=O)OCC [ethyl palmitate]	–
–	–	23%	57%	CCCCCCCCCCCCCCCCCC(=O)OCC [ethyl stearate]	–
–	72 weeks	–	–	CCCCCCCC/C=C\CCCCCCCC(=O)OC [methyl oleate]	proportional composition of the total blend after two weeks [1]: 82%; proportional composition of the total blend at start [2]: 48%
